Reference: patent US8816129B2, “PTP1B inhibitors, synthesis thereof and application thereof in preparation of medicaments for treating type 2 diabetes mellitus” (Institute of Oceanology, Chinese Academy of Sciences, priority 2010, dated 2014)
pIC50: −log10 of the molar value. Like-named read-outs stand apart in the source and are kept apart here.

Experiments:
[1] = target: T1, human recombinant PTP1B (hGST-PTP1B) (Homo sapiens, UniProt P18031); assay: PTP1B inhibitory assay (pNPP hydrolysis, absorbance at 405 nm); format: biochemical; settings: 2 mM pNPP, 30 nM hGST-PTP1B, pH 6.5, 30° C.; for inhibition at 5 µg/mL: 5 μg/mL compound; for inhibition at 20 µg/mL: 20 μg/mL compound
T1 construct: made in house; host or cells: E. coli BL21
T1 sequence (P18031 1-435): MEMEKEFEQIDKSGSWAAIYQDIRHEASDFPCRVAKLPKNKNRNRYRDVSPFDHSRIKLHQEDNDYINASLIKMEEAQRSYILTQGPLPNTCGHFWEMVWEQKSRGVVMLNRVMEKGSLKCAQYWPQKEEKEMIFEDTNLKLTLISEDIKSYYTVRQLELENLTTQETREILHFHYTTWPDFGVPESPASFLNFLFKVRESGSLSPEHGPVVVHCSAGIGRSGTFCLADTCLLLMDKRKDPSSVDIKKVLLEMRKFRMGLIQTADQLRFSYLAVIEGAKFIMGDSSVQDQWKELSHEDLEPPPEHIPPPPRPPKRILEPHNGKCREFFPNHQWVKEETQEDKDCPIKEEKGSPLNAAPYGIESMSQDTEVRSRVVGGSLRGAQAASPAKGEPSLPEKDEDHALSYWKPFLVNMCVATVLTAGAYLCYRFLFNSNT
Experimental: Construct human recombinant PTP1B engineering bacteria hGST-PTP1B-BL21 via molecular biology methods, and purify it through GST-tagged affinity chromatography. The principle is that the product pNP, which is enzymolysis of pNPP by PTP1B, absorbs at 405 nm. The activity of PTP1B inhibition can be measured by calculating the quantity of pNP.
Compounds 1-12 were dissolved in DMSO. 2 μL of samples were placed into the system (50 mM Tris-HCl, pH 6.5, 2 mM pNPP, 2% DMSO, 30 nM hGST-PTP1B). DMSO was distributed as negative control and Na3VO4 was positive control. The reaction was at 30° C. and monitored at 405 nm for 3 min. Inhibitory rate was calculated according to the following formula: % inhibition=100% ×[(Vsample−VDMSO)/[…]]

PTP1B = target: T2, PTP1B (Homo sapiens, UniProt P18031); settings: background statement; read-out: IC50 (PTP1B inhibitor); cited from earlier work
T2 sequence (P18031 1-435): T1 sequence (P18031 1-435)

COc1cc(C(=O)c2c(C(Br)Br)cc(OC)c(OC)c2Br)c(Br)c(Br)c1OC [Compound 1, (2′-bromo-6′-(dibromomethyl)-3′,4′-dimethoxyphenyl)-(2,3-dibromo-4,5-dimethoxyphenyl)-methanone]
inhibition at 5 µg/mL [1]: 47.9% | inhibition at 20 µg/mL [1]: 101% | IC50 ([1]; read-out: IC50 (converted)): 1.84 µM

CCCOCc1cc(O)c(O)c(Br)c1Cc1cc(O)c(O)c(Br)c1Br [Compound 2, 3,4-dibromo-5-[2′-bromo-3′,4′-dihydroxy-6′-(propoxymethyl)-benzyl]-benzene-1,2-diol]
inhibition at 5 µg/mL [1]: 55.7% | inhibition at 20 µg/mL [1]: 86.2% | IC50 [1]: 1.08 µg/mL

CC(C)OCc1cc(O)c(O)c(Br)c1Cc1cc(O)c(O)c(Br)c1Br [Compound 3, 3,4-dibromo-5-[2′-bromo-3′,4′-dihydroxy-6′-(isopropoxymethyl)-benzyl]-benzene-1,2-diol]
inhibition at 5 µg/mL [1]: 68.2% | inhibition at 20 µg/mL [1]: 93.9% | IC50 ([1]; read-out: IC50 (converted)): 0.628 µM

CCCCOCc1cc(O)c(O)c(Br)c1Cc1cc(O)c(O)c(Br)c1Br [Compound 4, 3,4-dibromo-5-[2′-bromo-6′-(butoxymethyl)-3′,4′-dihydroxy-benzyl]-benzene-1,2-diol]
inhibition at 5 µg/mL [1]: 27.2% | inhibition at 20 µg/mL [1]: 64.6%

CC(C)COCc1cc(O)c(O)c(Br)c1Cc1cc(O)c(O)c(Br)c1Br [Compound 5, 3,4-dibromo-5-[2′-bromo-3′,4′-dihydroxy-6′-(isobutoxymethyl)-benzyl]-benzene-1,2-diol]
inhibition at 5 µg/mL [1]: 48.3% | inhibition at 20 µg/mL [1]: 96.2% | IC50 [1]: 0.83 µg/mL

CCC(C)OCc1cc(O)c(O)c(Br)c1Cc1cc(O)c(O)c(Br)c1Br (centres unmarked) [Compound 6, 3,4-dibromo-5-(2-bromo-6-(sec-butoxymethyl)-3,4-dihydroxybenzyl)benzene-1,2-diol]
inhibition at 5 µg/mL [1]: 42.4% | inhibition at 20 µg/mL [1]: 96.5% | IC50 ([1]; read-out: IC50 (converted)): 1.82 µM

COc1cc(Br)c(Cc2cc(OC)c(OC)c(Br)c2Cc2cc(OC)c(OC)c(Br)c2Br)cc1OC [Compound 7, 2,3-dibromo-1-[2′-bromo-6′-(2″-bromo-4″,5″-dimethoxybenzyl)-3′,4′-dimethoxybenzyl]-4,5-dimethoxybenzene]
inhibition at 20 µg/mL [1]: 101%

CCCOCc1cc(O)c(O)c(Br)c1Cc1c(Br)c(O)c(O)c(Br)c1Br [Compound 8, 3,4,6-tribromo-5-(2-bromo-3,4-dihydroxy-6-(propoxymethyl)benzyl)benzene-1,2-diol]
inhibition at 5 µg/mL [1]: 42.4% | inhibition at 20 µg/mL [1]: 98.8% | IC50 ([1]; read-out: IC50 (converted)): 1.63 µM

CC(C)OCc1cc(O)c(O)c(Br)c1Cc1c(Br)c(O)c(O)c(Br)c1Br [Compound 9, 3,4,6-tribromo-5-(2-bromo-3,4-dihydroxy-6-(isopropoxymethyl)benzyl)benzene-1,2-diol]
inhibition at 20 µg/mL [1]: 98.5%

CCCCOCc1cc(O)c(O)c(Br)c1Cc1c(Br)c(O)c(O)c(Br)c1Br [Compound 10, 3,4,6-tribromo-5-(2-bromo-6-(butoxymethyl)-3,4-dihydroxybenzyl)benzene-1,2-diol]
inhibition at 20 µg/mL [1]: 99%

CC(C)COCc1cc(O)c(O)c(Br)c1Cc1c(Br)c(O)c(O)c(Br)c1Br [Compound 11, 3,4,6-tribromo-5-(2-bromo-3,4-dihydroxy-6-(isobutoxymethyl)benzyl)benzene-1,2-diol]
inhibition at 20 µg/mL [1]: 101%

Cc1cc(O)c(O)c(Br)c1Cc1c(Br)c(O)c(O)c(Br)c1Br [Compound 12, 3,4,6-tribromo-5-(2-bromo-3,4-dihydroxy-6-methylbenzyl)benzene-1,2-diol]
inhibition at 20 µg/mL [1]: 57.7%

CCc1oc2ccccc2c1C(=O)c1cc(Br)c(O)c(Br)c1 [benzbromarone]
pIC50 (PTP1B): 4.59
